SMILES strings stand for the structures. Where a name gives a salt, the structure may show the parent alone.

One assay relates to Acinetobacter baumannii ATCC17961. Nature of the assay: Antimicrobial susceptibility testing: 90% growth inhibitory concentration (IC90) determination. Format: cell-based. The conditions noted are these: 90% growth inhibitory concentration against Acinetobacter baumannii ATCC17961, Iso-Sensitest broth, OD 600 nm over 16 h; read-out: ATCC 17961 IC90. The procedure, abridged: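 OD600 monitored each minute over 16 h at 35±2° C for bacteria (~5×10^5 CFU/mL final) in Iso-Sensitest medium with 10-point twofold compound series (e.g. 10-0.0195 μM final). Concentration giving 90% growth inhibition in log phase reported as IC90.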
The IC90 is the concentration needed for an effect of 90%. In the case of `Cn1c(-c2cn(-c3ccc(N)cn3)nc2C(F)(F)F)cnc1C(=O)Nc1ccc(C(=O)N2CCN(C(=O)CCC[N+](CCCN)(CCCN)CC(=O)O)CC2)c(Cl)c1` [Example 66, bis(3-aminopropyl)-[4-[4-[4-[[5-[1-(5-amino-2-pyridyl)-3-(trifluoromethyl)pyrazol-4-yl]-1-methyl-imidazole-2-carbonyl]amino]-2-chloro-benzoyl]piperazino]-4-keto-butyl]-(carboxymethyl)ammonium. 1:1 2,2,2-trifluoroacetate], the 90% effect concentration (IC90) worked out at 720 nM.

Staying with this assay, now noted: Acinetobacter baumannii, ATCC17961, 16 h, 90% growth inhibitory concentration against Acinetobacter baumannii ATCC17961, Iso-Sensitest broth, OD 600 nm over 16 h; read-out: ATCC 17961 IC90.
As for `Cn1c(-c2cn(-c3ccc4occc4n3)nc2C(F)(F)F)cnc1C(=O)Nc1ccc(C(=O)N2CCN(C(=O)C3CC[N+](CC(=O)O)(CC4CNC4)CC3)CC2)c(Cl)c1` (stereo not drawn) [Example 63, 2-[1-(azetidin-3-ylmethyl)-4-[4-[2-chloro-4-[[5-[1-furo[3,2-b]pyridin-5-yl-3-(trifluoromethyl)pyrazol-4-yl]-1-methyl-imidazole-2-carbonyl]amino]benzoyl]piperazine-1-carbonyl]piperidin-1-ium-1-yl]acetic acid. 1:1 2,2,2-trifluoroacetate], the IC90 is 680 nM.

For `Cn1c(-c2cn(-c3ccc(N)cn3)nc2C(F)(F)F)cnc1C(=O)Nc1ccc(C(=O)N2CCN(C(=O)[C@H]3CC[N@@+](CC(=O)O)(CC4CNC4)CC3)CC2)c(Cl)c1` [Example 64, trans-2-[4-[4-[4-[[5-[1-(5-amino-2-pyridyl)-3-(trifluoromethyl)pyrazol-4-yl]-1-methyl-imidazole-2-carbonyl]amino]-2-chloro-benzoyl]piperazine-1-carbonyl]-1-(azetidin-3-ylmethyl)piperidin-1-ium-1-yl]acetic acid. 1:1 2,2,2-trifluoroacetic acid. 1:1 2,2,2-trifluoroacetate], the IC90 was determined as 680 nM.

In the case of `Cn1c(-c2cn(-c3ccc(N)c(N)n3)nc2C(F)(F)F)cnc1C(=O)Nc1ccc(C(=O)N2CCN(C(=O)C3CC[N+](CC(=O)O)(CC4CNC4)CC3)CC2)c(Cl)c1` (stereo not drawn) [Example 67, 2-[1-(azetidin-3-ylmethyl)-4-[4-[2-chloro-4-[[5-[1-(5,6-diamino-2-pyridyl)-3-(trifluoromethyl)pyrazol-4-yl]-1-methyl-imidazole-2-carbonyl]amino]benzoyl]piperazine-1-carbonyl]piperidin-1-ium-1-yl]acetic acid. 1:1 2,2,2-trifluoroacetate], the 90% effect concentration (IC90) was found to be 720 nM.

As for `CNc1ccc(-n2cc(-c3cnc(C(=O)Nc4ccc(C(=O)N5CCN(C(=O)C6CC[N+](CC(=O)O)(CC7CNC7)CC6)CC5)c(Cl)c4)n3C)c(C(F)(F)F)n2)cn1` (stereo not drawn) [Example 68, 2-[1-(azetidin-3-ylmethyl)-4-[4-[2-chloro-4-[[1-methyl-5-[1-[6-(methylamino)-3-pyridyl]-3-(trifluoromethyl)pyrazol-4-yl]imidazole-2-carbonyl]amino]benzoyl]piperazine-1-carbonyl]piperidin-1-ium-1-yl]acetic acid. 1:1 2,2,2-trifluoroacetate], the 90% effect concentration (IC90) was 760 nM.

In the case of `Cn1c(-c2cn(-c3ccc(NC4CCC4)cn3)nc2C(F)(F)F)cnc1C(=O)Nc1ccc(C(=O)N2CCN(C(=O)C3CC[N+](CC(=O)O)(CC4CNC4)CC3)CC2)c(Cl)c1` (stereo not drawn) [Example 69, 2-[1-(azetidin-3-ylmethyl)-4-[4-[2-chloro-4-[[5-[1-[5-(cyclobutylamino)-2-pyridyl]-3-(trifluoromethyl)pyrazol-4-yl]-1-methyl-imidazole-2-carbonyl]amino]benzoyl]piperazine-1-carbonyl]piperidin-1-ium-1-yl]acetic acid. 1:1 formate], the 90% effect concentration (IC90) turned out to be 790 nM.

The record behind these values is patent US20250179066A1, “ZWITTERIONIC ANTIBACTERIAL COMPOUNDS” (Hoffmann-La Roche Inc., priority 2022, published 2025).
